Marks after values point to notes of the source that are not given here.
Experiments:
[1] = tested on: Mice of the species/strain B6C3F1; test: Histopathological examination of the kidney after 13 weeks of oral gavage dosing; type: in vivo; details: for Vacuolar Degeneration of Renal Proximal Tubules (number of animals): 12 animals examined, 13 weeks
Experimental: Mice of the species/strain B6C3F1 of an initial age of 6 weeks were dosed via oral gavage with febuxostat suspended in 0.5% methyl cellulose. The daily dose administered was either 0 mg (i.e., the control group), 3 mg, 12 mg, 24 mg, or 48 mg. Histopathological examination of the kidney was carried out after 13-weeks of dosing for vacuolar degeneration of renal proximal tubules (a known naturally occurring change in rodents).

[2] = tested on: remnant kidney (RK) rats; test: Proteinuria in remnant kidney rats; type: in vivo, Male Wistar rats
Experimental: Male Wistar rats (295-340 g) were used to produce rats with remnant kidney (RK) as follows. […] Rats were then assigned to one of four treatment groups: Group 1, RK control rats (n=7); Group 2, RK+febuxostat (Fx) rats (n=8); Group 3, RK+oxonic acid (OA) rats (n=6); and Group 4, RK+OA+Fx (n=10). Oxonic acid (OA) (Sigma-Aldrich, St Louis Mo., USA), administered at 750 mg/kg body weight daily by oral gavage, was given starting the day after the ⅚ nephrectomy. […] Body weight (beginning just before surgery) and food and water intakes were measured daily. Systolic blood pressure, measured in conscious rats by a tail cuff sphygmomanometer, and plasma uric acid (UA) levels were measured at just before surgery (namely, at baseline) and at the end of the four weeks. Proteinuria was measured at baseline and at the end of two and four weeks. […] Food and water intake were determined daily. Systolic blood pressure (SBP) was measured by a tail-cuff sphygmomanometer using an automated system (XBP-100; Kent Scientific Co, Torrington, Conn., USA) in conscious animals. […] Plasma uric acid was quantified using a commercial kit (Diagnostic Chemicals Ltd, Charlottetown, PEI, Canada). […]

[3] = tested on: remnant kidney (RK) rats; test: Tubulointerstitial fibrosis quantification; type: in vivo, Male Wistar rats; details: febuxostat in both RK and RK+OA rats
Experimental: Male Wistar rats (295-340 g) were used to produce rats with remnant kidney (RK) as follows. […] Rats were then assigned to one of four treatment groups: Group 1, RK control rats (n=7); Group 2, RK+febuxostat (Fx) rats (n=8); Group 3, RK+oxonic acid (OA) rats (n=6); and Group 4, RK+OA+Fx (n=10). Oxonic acid (OA) (Sigma-Aldrich, St Louis Mo., USA), administered at 750 mg/kg body weight daily by oral gavage, was given starting the day after the ⅚ nephrectomy. […] Arteriolar morphology was assessed by indirect peroxidase immunostaining for alpha-smooth muscle actin (DAKO Corp, Carpinteria, Calif., USA). […] The degree of tubulointerstitial fibrosis was quantified in 10 non-crossed fields of cortex (100×) per biopsy. Slides were analyzed by light microscopy (Olympus BX51; Olympus American, Melville, N.Y., USA) and captured by a digital video camera (CoolSnap Pro; Media Cybernetics, Silver Spring, Md., USA). Pictures were processed on a computer and analyzed using Image Pro-Plus (version 5.0; Media Cybernetics, Silver Spring, Md., USA). Taking advantage of the capabilities of color recognition with this software, positive blue-stained areas (fibrosis) were selected and quantified in pixel units; glomeruli and vessels were previously excluded from the field. For each biopsy, the mean amount of positive blue-stained area was calculated by averaging the values from ten examined fields.

[4] = tested on: hyperuricemic gout patients; test: FOCUS long-term open-label study: safety
[5] = adverse events, N = 116, PY = 385.6
[6] = serious adverse events, N = 116, PY = 385.6

Cc1nc(-c2ccc(OCC(C)C)c(C#N)c2)sc1C(=O)O [febuxostat, 2-[3-cyano-4-(2-methylpropoxy)phenyl]-4-methylthiazole-5-carboxylic acid]
Vacuolar Degeneration of Renal Proximal Tubules (number of animals) ([1]; Daily Dose 3, Female): 1
Vacuolar Degeneration of Renal Proximal Tubules (number of animals) ([1]; Daily Dose 3, Male): 7*
Vacuolar Degeneration of Renal Proximal Tubules (number of animals) ([1]; Daily Dose 12, Female): 1
Vacuolar Degeneration of Renal Proximal Tubules (number of animals) ([1]; Daily Dose 12, Male): 5**
Vacuolar Degeneration of Renal Proximal Tubules (number of animals) ([1]; Daily Dose 24, Female): 0
Vacuolar Degeneration of Renal Proximal Tubules (number of animals) ([1]; Daily Dose 24, Male): 2**
Vacuolar Degeneration of Renal Proximal Tubules (number of animals) ([1]; Daily Dose 48, Female): 2
Vacuolar Degeneration of Renal Proximal Tubules (number of animals) ([1]; Daily Dose 48, Male): 1**
Vacuolar degeneration of the renal proximal tubules (in words) ([1]; male animals): reduced the amount of vacuolar degeneration of the renal proximal tubules in a statistically significant fashion
Rise of urinary protein excretion (in words) ([2]; RK rats with and without hyperuricemia): prevented the rise of urinary protein excretion
Urinary protein excretion, lower than the values in the respective control groups ([2]; RK+Fx and RK+OA+Fx rats, end of Week 4): 75-80%
Tubulointerstitial (TI) fibrosis (in words) [3]: significantly decreased
Subjects reporting serious adverse events (SAEs) ([4]; 21/116 subjects): 18%
Athralgia, rate [4, 5]: 13.0 per 100 PY
Diarrhea, rate [4, 5]: 7.8 per 100 PY
Headaches, rate [4, 5]: 20.5 per 100 PY
Influenza viral infections, rate [4, 5]: 7.3 per 100 PY
Limb injuries, rate [4, 5]: 5.4 per 100 PY
Liver function analyses, rate [4, 5]: 6.3 per 100 PY
Lower respiratory tract infections, rate [4, 5]: 8.8 per 100 PY
Musculoskeletal pain, rate [4, 5]: 23.6 per 100 PY
Paresthesias and dysesthesias, rate [4, 5]: 6.2 per 100 PY
Upper respiratory tract infections, rate [4, 5]: 37.8 per 100 PY
Deaths during the study ([4]; in vivo): No subjects died
Cardiac disorders, rate [4, 6]: 1.6 per 100 PY
Gastrointestinal disorders, rate [4, 6]: 0.8 per 100 PY
General disorders and administration site conditions, rate [4, 6]: 0.3 per 100 PY
Hepatobiliary disorders, rate [4, 6]: 0.5 per 100 PY
Infections and infestations, rate [4, 6]: 1.3 per 100 PY
Injury, poisoning and procedural complications, rate [4, 6]: 1.0 per 100 PY
Musculoskeletal and connective tissue disorders, rate [4, 6]: 1.6 per 100 PY
Neoplasms - bening, malignant and unspecified, rate [4, 6]: 1.0 per 100 PY
Nervous system disorders, rate [4, 6]: 0.5 per 100 PY
Psychiatric disorders, rate [4, 6]: 0.3 per 100 PY
Renal and urinary disorders, rate [4, 6]: 0.3 per 100 PY
Subjects reporting at least one AE during the study ([4]; subjects of 116 (Ninety-one percent)): 106/116
Reported rates of adverse events across renal function (in words) ([4]; throughout the range of renal function encountered): no quantitative difference

From patent publication US20130143886A1, “METHODS FOR PRESERVING AND/OR INCREASING RENAL FUNCTION USING XANTHINE OXIDOREDUCTASE INHIBITORS” (priority 2006, published 2013)
